Assay results taken from patent US4774381A, “Herbicide resistant tobacco” (E. I. Du Pont de Nemours and Company, priority 1985, dated 1988).

Test system: highly resistant tobacco cell line "A"
Assay: Growth test of highly resistant cell line
Type: cell-based, Nicotiana tabacum
Text: Resistant colonies were selected as they appeared and transferred to medium containing this same elevated level of sulfometuron-methyl. Several cell lines that continued to grow during subsequent passages in the presence of 200 ppb of the herbicide were isolated. […] A large part of this resistance is the result of the S4 mutation, for which this cell line is homozygous. However, because cell line A is inhibited by 100 ppb sulfometuron-methyl to approximatey the same degree as its parent S4/S4 is inhibited by 10 ppb, it appears that the new event increased resistance ten-fold beyond that conferred by the S4/S4 genotype.

COC(=O)c1ccccc1S(=O)(=O)NC(=O)Nc1nc(C)cc(C)n1 [Sulfometuron-methyl, sulfometuron-methyl]
increase of resistance beyond that conferred by the S4/S4 genotype (100 ppb on cell line A versus 10 ppb on S4/S4): ten-fold
activity at 0.001 µg/mL (Nicotiana tabacum, sulfometuron-methyl 1 ppb, cell line "A", read-out: % of fresh weight at 0 ppb): 90%
activity at 0.01 µg/mL (Nicotiana tabacum, sulfometuron-methyl 10 ppb, cell line "A", read-out: % of fresh weight at 0 ppb): 74%
activity at 0.1 µg/mL (Nicotiana tabacum, sulfometuron-methyl 100 ppb, cell line "A", read-out: % of fresh weight at 0 ppb): 24%
activity at 1 µg/mL (Nicotiana tabacum, sulfometuron-methyl 1000 ppb, cell line "A", read-out: % of fresh weight at 0 ppb): 10%
concentration allowing growth relative to concentration that completely inhibits a normal cell line (growth at a greatly reduced rate): 1000 times
Fr. wt. (sulfometuron-methyl 1 ppb, cell line "A"): 2379 ± 243 mg
Fr. wt. (sulfometuron-methyl 10 ppb, cell line "A"): 1952 ± 133 mg
Fr. wt. (sulfometuron-methyl 100 ppb, cell line "A"): 629 ± 72 mg
Fr. wt. (sulfometuron-methyl 1000 ppb, cell line "A"): 263 ± 83 mg
